Assay results published in US11219221B2 (FarmHannong Co., Ltd., priority 2017, dated 2022).

What was measured:
[1] = target: Thermosynechococcus sp. NK55a PPO CyPPO17 (SEQ ID NO: 3) variant R88A (MBP fusion); assay: PPO enzyme inhibition (IC50), MBP-fused PPO; type: biochemical; conditions: 50 μM protoporphyrinogen IX, pH 8.0, room temperature, 30 min
Experimental: (§1) Thus, PPO proteins of wild type and variants were expressed as fused to MBP and were used for experiments.
(§2) The following process for purification of PPO protein was performed in a 4° C. cold room. Amylose resin (NEB) was packed to 1.5×15 cm column (Bio-Rad, Econo Columns 1.5×15 cm, glass chromatography column, max. vol), and the obtained protein extracts were loaded to the column at a flow rate of 0.2 ml/min. The column was washed with 3 column volumes of buffer and the presence of protein in the washing solution was examined. When the protein was no longer detected, the washing procedure was terminated. Then, the MBP-PPO protein was eluted with approximately 2 column volumes of buffer containing 20 mM maltose. The protein concentration of each eluent was determined and the elution was stopped when the protein was no longer detected. Ten microliter of each fraction was investigated for protein quantification and SDS-PAGE analysis. The highly pure fractions of PPO protein variants were used for the enzyme assay.
(§3) Overall process was performed in dark under nitrogen stream. […] of protoporphyrin IX was dissolved in 20 ml of 20% (v/v) EtOH, and stirred under dark condition for 30 minutes. The obtained protoporphyrin IX solution was put into a 15 ml screw tube in an amount of 800 μl, and flushed with nitrogen gas for 5 minutes. To this, 1.5 g of sodium amalgam was added and vigorously shaken for 2 minutes. The lid was opened to exhaust hydrogen gas in the tube. Thereafter, the lid was closed and incubated for 3 minutes. […] To determine the enzyme activity of PPO protein, a reaction mixture was prepared with the following composition (based on 10 ml): 50 mM Tris-Cl (pH 8.0); 50 mM NaCl; 0.04% (v/v) Tween 20; 40 mM glucose (0.072 g); 5 units glucose oxidase (16.6 mg); and 10 units catalase (1 μl).
(§4) Hundred and eighty microliters of a reaction mixture containing the purified PPO protein were placed in 96 well plates and 20 μl of […] were added. […] The reaction proceeded at room temperature for 30 min and the fluorescence of protoporphyrin IX was measured using Microplate reader (Sense, Hidex) (excitation: 405 nm; emission: 633 nm). […] To this, 2.7 N HCl was added, and the absorbance at 408 nm was measured. A standard curve was generated using standard protoporphyrin IX, and PPO activity was measured by calibration of protoporphyrin IX using the standard curve of protoporphyrin IX.

[2] = target: Thermosynechococcus sp. NK55a PPO CyPPO17 (SEQ ID NO: 3) variant A166L (MBP fusion); assay: PPO enzyme inhibition (IC50), MBP-fused PPO; type: biochemical; conditions: 50 μM protoporphyrinogen IX, pH 8.0, room temperature, 30 min
Experimental: as §1, §2, §3, §4

[3] = target: Thermosynechococcus sp. NK55a PPO CyPPO17 (SEQ ID NO: 3) variant V164C (MBP fusion); assay: PPO enzyme inhibition (IC50), MBP-fused PPO; type: biochemical; conditions: 50 μM protoporphyrinogen IX, pH 8.0, room temperature, 30 min
Experimental: as §1, §2, §3, §4

[4] = target: Thermosynechococcus sp. NK55a PPO CyPPO17 (SEQ ID NO: 3) variant L326T (MBP fusion); assay: PPO enzyme inhibition (IC50), MBP-fused PPO; type: biochemical; conditions: 50 μM protoporphyrinogen IX, pH 8.0, room temperature, 30 min
Experimental: as §1, §2, §3, §4

[5] = target: Thermosynechococcus sp. NK55a PPO CyPPO17, wild type, SEQ ID NO: 3 (MBP fusion); assay: PPO enzyme inhibition (IC50), MBP-fused PPO; type: biochemical; conditions: 50 μM protoporphyrinogen IX, pH 8.0, room temperature, 30 min
Experimental: as §1, §2, §3, §4

[6] = target: Thermosynechococcus sp. NK55a PPO CyPPO17 (SEQ ID NO: 3) variant V304M (MBP fusion); assay: PPO enzyme inhibition (IC50), MBP-fused PPO; type: biochemical; conditions: 50 μM protoporphyrinogen IX, pH 8.0, room temperature, 30 min
Experimental: as §1, §2, §3, §4

[7] = target: Spirulina subsalsa PPO CyPPO16 (SEQ ID NO: 1) variant A162L (MBP fusion); assay: PPO enzyme inhibition (IC50), MBP-fused PPO; type: biochemical; conditions: 50 μM protoporphyrinogen IX, pH 8.0, room temperature, 30 min
Experimental: as §1, §2
(§5) Since protoporphyrinogen IX, a substrate of PPO protein, was not commercially available, it was chemically synthesized in the laboratory. Overall process was performed in dark under nitrogen stream. […] of protoporphyrin IX was dissolved in 20 ml of 20% (v/v) EtOH, and stirred under dark condition for 30 minutes. The obtained protoporphyrin IX solution was put into a 15 ml screw tube in an amount of 800 μl, and flushed with nitrogen gas for 5 minutes. To this, 1.5 g of sodium amalgam was added and vigorously shaken for 2 minutes. The lid was opened to exhaust hydrogen gas in the tube. Thereafter, the lid was closed and incubated for 3 minutes. The protoporphyrinogen IX solution was filtered using syringe and cellulose membrane filter. […] To determine the enzyme activity of PPO protein, a reaction mixture was prepared with the following composition (based on 10 ml): 50 mM Tris-Cl (pH 8.0); 50 mM NaCl; 0.04% (v/v) Tween 20; 40 mM glucose (0.072 g); 5 units glucose oxidase (16.6 mg); and 10 units catalase (1 μl).
as §4

[8] = target: Spirulina subsalsa PPO CyPPO16, wild type, SEQ ID NO: 1 (MBP fusion); assay: PPO enzyme inhibition (IC50), MBP-fused PPO; type: biochemical; conditions: 50 μM protoporphyrinogen IX, pH 8.0, room temperature, 30 min
Experimental: as §1, §2, §5, §4

[9] = target: Spirulina subsalsa PPO CyPPO16 (SEQ ID NO: 1) variant V305M (MBP fusion); assay: PPO enzyme inhibition (IC50), MBP-fused PPO; type: biochemical; conditions: 50 μM protoporphyrinogen IX, pH 8.0, room temperature, 30 min
Experimental: as §1, §2, §5, §4

[10] = target: Spirulina subsalsa PPO CyPPO16 (SEQ ID NO: 1) variant F324V (MBP fusion); assay: PPO enzyme inhibition (IC50), MBP-fused PPO; type: biochemical; conditions: 50 μM protoporphyrinogen IX, pH 8.0, room temperature, 30 min
Experimental: as §1, §2, §5, §4

[11] = target: Spirulina subsalsa PPO CyPPO16 (SEQ ID NO: 1) variant L327T (MBP fusion); assay: PPO enzyme inhibition (IC50), MBP-fused PPO; type: biochemical; conditions: 50 μM protoporphyrinogen IX, pH 8.0, room temperature, 30 min
Experimental: as §1, §2, §5, §4

[12] = target: Thermosynechococcus sp. NK55a PPO CyPPO17 (SEQ ID NO: 3) variant F323V (MBP fusion); assay: PPO enzyme inhibition (IC50), MBP-fused PPO; type: biochemical; conditions: 50 μM protoporphyrinogen IX, pH 8.0, room temperature, 30 min
Experimental: as §1, §2, §5, §4

[13] = target: Spirulina subsalsa PPO CyPPO16 (SEQ ID NO: 1) variant A162C (MBP fusion); assay: PPO enzyme inhibition (IC50), MBP-fused PPO; type: biochemical; conditions: 50 μM protoporphyrinogen IX, pH 8.0, room temperature, 30 min
Experimental: as §1, §2, §5, §4

[14] = target: Spirulina subsalsa PPO CyPPO16 (SEQ ID NO: 1) variant R85A (MBP fusion); assay: PPO enzyme inhibition (IC50), MBP-fused PPO; type: biochemical; conditions: 50 μM protoporphyrinogen IX, pH 8.0, room temperature, 30 min
Experimental: as §1, §2, §5, §4

[15] = target: Thermosynechococcus sp. NK55a PPO CyPPO17 (SEQ ID NO: 3) variant A166C (MBP fusion); assay: PPO enzyme inhibition (IC50), MBP-fused PPO; type: biochemical; conditions: 50 μM protoporphyrinogen IX, pH 8.0, room temperature, 30 min
Experimental: as §1, §2, §5, §4

[16] = target: Spirulina subsalsa PPO CyPPO16 (SEQ ID NO: 1) variant F156A (MBP fusion); assay: PPO enzyme inhibition (IC50), MBP-fused PPO; type: biochemical; conditions: 50 μM protoporphyrinogen IX, pH 8.0, room temperature, 30 min
Experimental: as §1, §2, §5, §4

[17] = target: Spirulina subsalsa PPO CyPPO16 (SEQ ID NO: 1) variant V160C (MBP fusion); assay: PPO enzyme inhibition (IC50), MBP-fused PPO; type: biochemical; conditions: 50 μM protoporphyrinogen IX, pH 8.0, room temperature, 30 min
Experimental: as §1, §2, §5, §4

[18] = target: Thermosynechococcus sp. NK55a PPO CyPPO17 (SEQ ID NO: 3) variant F160A (MBP fusion); assay: PPO enzyme inhibition (IC50), MBP-fused PPO; type: biochemical; conditions: 50 μM protoporphyrinogen IX, pH 8.0, room temperature, 30 min
Experimental: as §1, §2, §5, §4

[19] = tested on: transgenic A. thaliana (CyPPO16, CyPPO17 and variants); assay: Herbicide spray test on Arabidopsis (T1); type: in vivo, Arabidopsis thaliana; conditions: 1 μM spray (100 ml, 0.24 m^2), 4-week-old T1 plants
Excerpt: A. thaliana was transformed with a binary vector having ORF of a selectable marker, Bar gene (glufosinate-tolerant gene), and ORF of each mutant gene of CyPPO16 and CyPPO17. The transgenic plant was examined for cross-tolerance towards glufosinate and PPO-inhibiting herbicides. The bar gene was also used to examine whether the transgene was stably inherited during generations. NOS promoter and E9 terminator were used for bar gene expression.
In order to express proteins of CyPPO16, CyPPO16 variants, CyPPO17, and CyPPO17 variants in plants, a CaMV35S promoter and a NOS terminator were used. Encoding genes of CyPPO16, CyPPO16 variants, CyPPO17, and CyPPO17 variants were introduced into binary vector using Xhol and BamHI restriction enzymes. Furthermore, for confirmation of the protein expression, hemagglutinin (HA) tag was fused to the C-terminal region of PPO protein coding gene using BamHI and Sad restriction enzymes. In addition, in order to transit protein to chloroplast, transit peptide (TP) gene (SEQ ID NO: 90) of AtPPO1 gene (SEQ ID NO: 89) was fused to N-terminal region of PPO protein coding gene using Xbal and Xhol restriction enzymes.
Transgenic plants were screened with glufosinate tolerance which was conferred by Bar gene expression in the binary vector. […]

COC(=O)CCNC(=O)C(C)Sc1cc(-n2c(=O)cc(C(F)(F)F)n(C)c2=O)c(F)cc1Cl (stereo not shown) [tiafenacil]
IC50 [1]: 152 nM | IC50 [2]: 1130 nM | IC50 [3]: 87 nM | IC50 [4]: 194 nM | IC50 [5]: 44 nM | IC50 [6]: 102 nM | IC50 [7]: 193 nM | IC50 [8]: 26 nM | IC50 [9]: 43 nM | IC50 [10]: 103 nM | IC50 [11]: 40 nM | IC50 [12]: 152 nM | IC50 [13]: 79 nM | IC50 [14]: 119 nM | IC50 [15]: 219 nM | IC50 [16]: 60 nM | IC50 [17]: 45 nM | IC50 [18]: 115 nM | Plant damage after herbicide spray [19]: no damage
